Like-named read-outs stand apart in the source and are kept apart here.
Target: T1, AR (Homo sapiens, UniProt P10275)
T1 construct: endogenous in cells; host or cells: VCaP cells
T1 sequence (P10275 1-920): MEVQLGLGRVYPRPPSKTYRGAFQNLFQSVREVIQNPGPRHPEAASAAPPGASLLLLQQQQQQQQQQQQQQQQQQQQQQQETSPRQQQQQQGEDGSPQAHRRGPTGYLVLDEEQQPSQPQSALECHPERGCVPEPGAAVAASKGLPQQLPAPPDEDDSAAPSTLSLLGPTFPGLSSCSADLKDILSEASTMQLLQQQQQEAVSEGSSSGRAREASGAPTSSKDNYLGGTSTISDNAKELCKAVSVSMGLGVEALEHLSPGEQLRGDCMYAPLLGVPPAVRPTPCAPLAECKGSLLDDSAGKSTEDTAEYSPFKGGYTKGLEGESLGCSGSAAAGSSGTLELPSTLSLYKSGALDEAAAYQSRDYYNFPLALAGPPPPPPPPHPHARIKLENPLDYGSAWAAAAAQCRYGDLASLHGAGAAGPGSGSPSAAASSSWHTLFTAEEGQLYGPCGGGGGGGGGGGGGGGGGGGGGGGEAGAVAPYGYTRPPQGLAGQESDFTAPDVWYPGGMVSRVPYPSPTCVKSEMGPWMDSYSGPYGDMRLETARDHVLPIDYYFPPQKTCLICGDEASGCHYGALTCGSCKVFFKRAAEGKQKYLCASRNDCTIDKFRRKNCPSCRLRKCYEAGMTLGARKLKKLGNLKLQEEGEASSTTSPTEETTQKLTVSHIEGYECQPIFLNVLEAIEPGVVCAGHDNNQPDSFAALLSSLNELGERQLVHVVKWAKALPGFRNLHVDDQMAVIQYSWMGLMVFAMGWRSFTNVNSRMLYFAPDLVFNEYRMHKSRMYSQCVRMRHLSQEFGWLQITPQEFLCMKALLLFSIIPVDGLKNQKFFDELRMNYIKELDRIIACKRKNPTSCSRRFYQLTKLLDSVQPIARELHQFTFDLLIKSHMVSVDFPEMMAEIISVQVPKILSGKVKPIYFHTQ
Assay: VCAP AR Degradation Assay
Type: cell-based
Conditions: for Y (AR degradation efficiency, % of DMSO control): class symbols *; for DC50: class symbols A-C
Procedure: VCAP AR Degradation Assay. Test compounds were pre-dispensed into a Corning CellBind 96-well clear bottom plate (Cat #3300) using an acoustic dispenser to make a 10-point concentration series at 1:3 dilution for each compound. The final top concentration of each compound was 5 μM. DMSO at a final concentration of 0.1% was used as a control. VCaP cells cultured in DMEM with 8% fetal bovine serum (FBS) were seeded at 50K cells per well in a 200 μL volume into the compound plate and incubated at 37° C. in a CO2 incubator for 24 h. The medium was carefully removed from the cells and the plate was placed on ice. One hundred μL of ice-cold 1x cell lysis buffer from Cell Signaling Technologies (Cat #9803) was added to each well of the cells and the plate was incubated at 4° C. on a shaker for 1 h. Fifteen μL of cell lysate was used for AR ELISA detection using a PathScan Total Sandwich AR ELISA kit (Cell Signaling Technology, Cat #12580). AR levels in compound-treated wells were normalized to that of DMSO control and expressed as percent of control (PoC) (y). A Four Parameter Logistic Model (Sigmoidal Dose-Response Model) was used to determine the compound's DC50, and EC50, using the following equation:
[formula] • A=YMin (lowest AR level normalized to DMSO control in response to compound treatment, as determined by curve fit) • B=YMax (maximum AR level as determined by curve fit) • C=EC50 • D=Hill Slope • x=compound concentration • EC50=the concentration of compound when y=(YMax−YMin)/2 • DC50=the concentration of the compound when y=50% of DMSO control (50% AR degradation) • y=AR protein level normalized to DMSO control
The lowest measured AR level normalized to DMSO control in response to compound treatment, termed Y value, was used to characterize the compound-mediated AR degradation efficiency.

SMILES | DC50 (read-out: DC50) [nM] | Y (AR degradation efficiency, % of DMSO control) | DC50 [nM]
CCc1cc(N2C(=S)N(c3cnc(C#N)c(C(F)(F)F)c3)C(=O)C2(C)C)ccc1OCCN1CC2CCC(C1)N2CC(=O)Nc1cc(Cl)cc(NC2CCC(=O)NC2=O)c1 (stereo not drawn) [Example 173, N-(3-chloro-5-(2,6-dioxopiperidin-3-ylamino)phenyl)-2-(3-(2-(4-(3-(6-cyano-5-(trifluoromethyl)pyridin-3-yl)-5,5-dimethyl-4-oxo-2-thioxoimidazolidin-1-yl)-2-ethylphenoxy)ethyl)-3,8-diazabicyclo[3.2.1]octan-8-yl)acetamide] | – | * (0<Y<=25%) | < 100
Cc1c(N2C(=O)C(C)(C)N(c3ccc(OCCN4CCN(CC(=O)Nc5cccc(NC6CCC(=O)NC6=O)c5)CC4)c(F)c3)C2=S)ccc(C#N)c1C(F)(F)F (stereo not drawn) [Example 96, 2-(4-(2-(4-(3-(4-cyano-2-methyl-3-(trifluoromethyl)phenyl)-5,5-dimethyl-4-oxo-2-thioxoimidazolidin-1-yl)-2-fluorophenoxy)ethyl)piperazin-1-yl)-N-(3-(2,6-dioxopiperidin-3-ylamino)phenyl)acetamide] | < 100 | *** (35%<Y<50%) | –
CC(C)c1cc(N2C(=S)N(c3ccc(C#N)c(C(F)(F)F)c3)C(=O)C2(C)C)ccc1OCCN1C[C@@H](C)N(CC(=O)Nc2cc(F)cc(NC3CCC(=O)NC3=O)c2)[C@@H](C)C1 (stereo partly drawn) [Example 213, 2-((2S,6R)-4-(2-(4-(3-(4-cyano-3-(trifluoromethyl)phenyl)-5,5-dimethyl-4-oxo-2-thioxoimidazolidin-1-yl)-2-isopropylphenoxy)ethyl)-2,6-dimethylpiperazin-1-yl)-N-(3-(2,6-dioxopiperidin-3-ylamino)-5-fluorophenyl)acetamide] | < 100 | * (0<Y<=25%) | –
CC(C)c1cc(N2C(=S)N(c3ccc(C#N)c(C(F)(F)F)c3)C(=O)C2(C)C)cnc1OCCN1C[C@@H](C)N(CC(=O)Nc2cc(C#N)cc(NC3CCC(=O)NC3=O)c2)C[C@H]1C (stereo partly drawn) [Example 232, 2-((2R,5R)-4-(2-(5-(3-(4-cyano-3-(trifluoromethyl)phenyl)-5,5-dimethyl-4-oxo-2-thioxoimidazolidin-1-yl)-3-isopropylpyridin-2-yloxy)ethyl)-2,5-dimethylpiperazin-1-yl)-N-(3-cyano-5-(2,6-dioxopiperidin-3-ylamino)phenyl)acetamide] | 100 to 500 | * (0<Y<=25%) | –
CCc1cc(N2C(=S)N(c3ccc(C#N)c(C(F)(F)F)c3)C(=O)C2(C)C)ccc1OCCN1C[C@@H](C)N(CC(=O)Nc2cc(Cl)cc(NC3CCC(=O)NC3=O)c2)C[C@@H]1C (stereo partly drawn) [Example 123, N-(3-chloro-5-(2,6-dioxopiperidin-3-ylamino)phenyl)-2-((2R,5S)-4-(2-(4-(3-(4-cyano-3-(trifluoromethyl)phenyl)-5,5-dimethyl-4-oxo-2-thioxoimidazolidin-1-yl)-2-ethylphenoxy)ethyl)-2,5-dimethylpiperazin-1-yl)acetamide] | < 100 | * (0<Y<=25%) | –
CCc1cc(N2C(=S)N(c3ccc(C#N)c(C(F)(F)F)c3)C(=O)C2(C)C)ccc1OCCN1CCN(CC(=O)Nc2cc(F)cc(NC3CCC(=O)NC3=O)c2)C(C)(C)C1 (stereo not drawn) [Example 73, 2-(4-(2-(4-(3-(4-cyano-3-(trifluoromethyl)phenyl)-5,5-dimethyl-4-oxo-2-thioxoimidazolidin-1-yl)-2-ethylphenoxy)ethyl)-2,2-dimethylpiperazin-1-yl)-N-(3-(2,6-dioxopiperidin-3-ylamino)-5-fluorophenyl)acetamide] | < 100 | * (0<Y<=25%) | –

Continued, in another order:

DC50 (read-out: DC50) [nM] | SMILES | Y (AR degradation efficiency, % of DMSO control) | DC50 [nM]
100 to 500 | CCc1cc(N2C(=S)N(c3cnc(C#N)c(C(F)(F)F)c3)C(=O)C2(C)C)ccc1OCCN1C[C@H]2C[C@@H]1CN2CC(=O)Nc1cc(Cl)cc(NC2CCC(=O)NC2=O)c1 (stereo partly drawn) [Example 120, N-(3-chloro-5-(2,6-dioxopiperidin-3-ylamino)phenyl)-2-((1R,4R)-5-(2-(4-(3-(6-cyano-5-(trifluoromethyl)pyridin-3-yl)-5,5-dimethyl-4-oxo-2-thioxoimidazolidin-1-yl)-2-ethylphenoxy)ethyl)-2,5-diazabicyclo[2.2.1]heptan-2-yl)acetamide] | ** (25%<Y<=35%) | –
< 100 | CCc1cc(N2C(=S)N(c3cnc(C#N)c(C(F)(F)F)c3)C(=O)C2(C)C)ccc1OCCN1CCN(CC(=O)Nc2cc(F)cc(NC3CCC(=O)NC3=O)c2)C(C)(C)C1 (stereo not drawn) [Example 77, 2-(4-(2-(4-(3-(6-cyano-5-(trifluoromethyl)pyridin-3-yl)-5,5-dimethyl-4-oxo-2-thioxoimidazolidin-1-yl)-2-ethylphenoxy)ethyl)-2,2-dimethylpiperazin-1-yl)-N-(3-(2,6-dioxopiperidin-3-ylamino)-5-fluorophenyl)acetamide] | * (0<Y<=25%) | –
< 100 | C[C@@H]1CN(CCOc2ccc(N3C(=S)N(c4cnc(C#N)c(C(F)(F)F)c4)C(=O)C3(C)C)cc2C2CC2)C[C@H](C)N1CC(=O)Nc1cccc(NC2CCC(=O)NC2=O)c1 (stereo partly drawn) [Example 235, 2-((2S,6R)-4-(2-(4-(3-(6-cyano-5-(trifluoromethyl)pyridin-3-yl)-5,5-dimethyl-4-oxo-2-thioxoimidazolidin-1-yl)-2-cyclopropylphenoxy)ethyl)-2,6-dimethylpiperazin-1-yl)-N-(3-(2,6-dioxopiperidin-3-ylamino)phenyl)acetamide] | * (0<Y<=25%) | –
< 100 | CC1(C)C(=O)N(c2cnc(C#N)c(C(F)(F)F)c2)C(=S)N1c1ccc(OCCN2CCN(CC(=O)Nc3cc(NC4CCC(=O)NC4=O)ccc3F)CC2)c(CC(F)F)c1 (stereo not drawn) [Example 66, 2-(4-(2-(4-(3-(6-cyano-5-(trifluoromethyl)pyridin-3-yl)-5,5-dimethyl-4-oxo-2-thioxoimidazolidin-1-yl)-2-(2,2-difluoroethyl)phenoxy)ethyl)piperazin-1-yl)-N-(5-(2,6-dioxopiperidin-3-ylamino)-2-fluorophenyl)acetamide] | * (0<Y<=25%) | –
< 100 | CCc1cc(N2C(=S)N(c3cnc(C#N)c(C(F)(F)F)c3)C(=O)C2(C)C)ccc1OCCN1CCN([C@H](C)C(=O)Nc2cc(F)cc(NC3CCC(=O)NC3=O)c2)CC1 (stereo partly drawn) [Example 117, (2R)-2-(4-(2-(4-(3-(6-cyano-5-(trifluoromethyl)pyridin-3-yl)-5,5-dimethyl-4-oxo-2-thioxoimidazolidin-1-yl)-2-ethylphenoxy)ethyl)piperazin-1-yl)-N-(3-(2,6-dioxopiperidin-3-ylamino)-5-fluorophenyl)propanamide] | * (0<Y<=25%) | –
< 100 | CCc1cc(N2C(=S)N(c3cnc(C#N)c(C(F)(F)F)c3)C(=O)C2(C)C)ccc1OCCN1CCN(CC(=O)Nc2cc(C#N)cc(NC3CCC(=O)NC3=O)c2)[C@H](C)C1 (stereo partly drawn) [Example 155, N-(3-cyano-5-(2,6-dioxopiperidin-3-ylamino)phenyl)-2-((R)-4-(2-(4-(3-(6-cyano-5-(trifluoromethyl)pyridin-3-yl)-5,5-dimethyl-4-oxo-2-thioxoimidazolidin-1-yl)-2-ethylphenoxy)ethyl)-2-methylpiperazin-1-yl)acetamide] | * (0<Y<=25%) | –
